Where two headings read alike, the source gives them in different places.
Assays:
PDK-4 [1] = test: PDK-4 expression (Western blot) in CCM-treated C2C12 myotubes; type: cell-based, mouse
Description: (§1) C2C12 cell line was dispensed into a 6-well plate at 4.0×10^5 cells/well and cultured in DMEM medium containing 10% fetal bovine serum (FBS) under 37° C. and 5% CO2 conditions for one day. When the cell density reached about 80%, the medium was replaced with a differentiation medium and the cells were cultured for additional 3 days. […] After culturing for 72 hours, the cells were collected and analyzed for PDK-4, which is a target marker, by Western blot and the results are summarized in FIG. 6.
(§2) A C2C12 cell line was dispensed into a 6-well plate at 4.0×10^5 cells/well, and then cultured in DMEM medium containing 10% fetal bovine serum (FBS) under 37° C. and 5% CO2 conditions for one day. When the cell density reached about 80%, the medium was replaced with a differentiation medium and the cells were cultured for additional 3 days.
Subsequently, MuRF1, Atrogin1, MyHC, Myogenin (muscle markers) and Calpain 3, PDK-4, and GDF-15 (other target markers for muscle related disease) were analyzed using Western blot, and the relative expression levels for the markers are shown in FIGS. 26 and 28.

[2] = Inhibition of weight loss in cancer cachexia animal model; type: in vivo, Balb/c mice; conditions: CT26 Balb/c cachexia model, G6 IV 200 mpk, p<0.05
From the text: In FIG. 49, each group represents the following.

Rotarod-treadmill test = type: in vivo, Balb/c mice; conditions: CT26 Balb/c cachexia model; G6 IV 200 mpk
Description: After the animal was carefully placed on a Rotarod-treadmill (JD-A-07RA5, B.S Technolab Inc., Korea), and the measurement was made for 300 seconds while increasing the rotation speed from 4 rpm to 40 rpm at regular intervals and, and the results are summarized in FIG. 53A.

PDK-4 [3] = conditions: CT26 Balb/c cachexia model, 21 days
From the text: The mice were sacrificed, and the skeletal muscle in the quadriceps was extracted during autopsy, and tissue was homogenized, and proteins were extracted through RIPA lysis buffer, followed by Western blot analysis.
In FIG. 47, each group represents the following.

lactate = test: Lactate in mouse blood, CT26 cachexia model; type: in vivo, Balb/c mice; conditions: CT26 Balb/c cachexia model, 21 days; G4 PO 200 mpk, G5 IV 100 mpk, G6 IV 200 mpk; vs vehicle control G2
Description: (§3) The mice were sacrificed, and IL-1β and lactate were analyzed using the blood serum collected at autopsy, and the results are summarized in FIGS. 48A and 48B.
(§4) In FIG. 48, each group represents the following.

Atrogin1 = Atrogin1 expression in mouse muscle tissue, CT26 cachexia model; type: in vivo, Balb/c mice; conditions: CT26 Balb/c cachexia model, 21 days
[4] = system: skeletal muscle (gastrocnemius, quadriceps, and soleus); conditions: CT26 Balb/c cachexia model, 21 days
Description: A CT26 mouse colorectal cancer cell line was subcutaneously transplanted into Balb/c mice to construct a syngeneic model, and the calcium salt (Asc-Ca-DCA) of Preparation
Example 1 was administered to the mice for a total of 21 days. The mice were sacrificed, and three types of skeletal muscle (gastrocnemius, quadriceps, and soleus) were extracted at autopsy, and histopathological analysis was performed. Cross-sectional images of muscle tissue were obtained, and the muscle fiber cross-sectional area (CSA) was measured, and the results are summarized in FIGS. 50 to 52.
In FIGS. 50 to 52, each group represents the following. […] Scale bars inserted in A to F of FIGS. 50 to 52 represent a horizontal length of 100 μm.

Wire hanging test = type: in vivo, Balb/c mice; conditions: CT26 Balb/c cachexia model; G4 to G6; compared to G3 megestrol (positive control)
Description: Along with the above, a wire hanging test was performed once a week, and the animal was placed on top of a wire cage, and then turned the cage upside down and hung over the home cage, and the waiting time until the animal fell was recorded and summarized in FIG. 53B.

IL-1β = IL-1β in mouse blood, CT26 cachexia model; type: in vivo, Balb/c mice; conditions: CT26 Balb/c cachexia model, 21 days; G4 PO 200 mpk, G5 IV 100 mpk, G6 IV 200 mpk; vs vehicle control G2
Description: as §3, §4

GDF-15 = GDF-15 expression (Western blot) in CCM-treated C2C12 myotubes; type: cell-based, mouse; conditions: C2C12 myotubes + CCM, 72 hours; comparison experiment with components alone and in combination
Description: as §1
The analysis was performed in the same manner as in Experimental Example 4-1 except for analyzing GDF-15 as a target marker for a Western blot, and the results are summarized in FIGS. 8 and 9.
The analysis was performed in the same manner as in Experimental Example 3-1 except for analyzing PDK-4 as a target marker for Western blot, and the results are summarized in FIGS. 10 and 11.
as §2

[5] = molecular target: T1, human recombinant cyclooxygenase COX-2 (Homo sapiens, UniProt P35354); test: Inhibition of COX2 (Ampliflu Red spectrofluorescence); type: biochemical; conditions: 10 μM, compared with untreated group
T1 construct: host or cells: insect Sf21 cells
T1 sequence (P35354 18-604): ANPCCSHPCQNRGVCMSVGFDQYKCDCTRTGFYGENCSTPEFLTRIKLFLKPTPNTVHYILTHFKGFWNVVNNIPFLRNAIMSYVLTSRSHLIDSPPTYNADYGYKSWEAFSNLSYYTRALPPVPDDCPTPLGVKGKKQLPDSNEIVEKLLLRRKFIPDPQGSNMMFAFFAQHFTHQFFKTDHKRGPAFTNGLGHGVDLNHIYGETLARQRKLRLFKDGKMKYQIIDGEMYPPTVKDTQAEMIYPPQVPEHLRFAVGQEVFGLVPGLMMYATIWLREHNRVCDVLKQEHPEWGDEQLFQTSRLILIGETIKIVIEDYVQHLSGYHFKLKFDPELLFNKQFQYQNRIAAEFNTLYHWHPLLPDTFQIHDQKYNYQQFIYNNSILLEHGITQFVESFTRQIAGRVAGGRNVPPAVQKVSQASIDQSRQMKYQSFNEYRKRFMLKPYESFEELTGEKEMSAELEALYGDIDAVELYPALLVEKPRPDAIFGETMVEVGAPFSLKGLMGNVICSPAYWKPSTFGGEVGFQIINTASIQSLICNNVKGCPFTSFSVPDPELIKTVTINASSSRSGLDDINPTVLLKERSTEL
Description: At this time, the concentration of the calcium salt contained in the buffer solution was set to 10 μM. As an enzyme, 34 U/mL of human recombinant cyclooxygenase COX-2 expressed in insect Sf21 cells was further added to the buffer solution, and pre-reacted at 25° C. for 15 minutes. In addition, 3 μM arachidonic acid and 100 μM Ampliflu Red were added and reacted at 25° C. for 3 minutes. The amount of Resofurin produced in the reaction process was measured at 535 nm/590 nm by a spectrofluorescence method, and the inhibitory effect on COX2 was confirmed by comparing with the calcium salt untreated group.

[6] = G4 PO 200 mpk, G5 IV 100 mpk, G6 IV 200 mpk, vs vehicle control G2
[7] = G4 to G6, compared to G3 megestrol 125 mpk

Compound: O=C([O-])C(Cl)Cl.O=C1OC(C(O)CO)C([O-])=C1O.[Ca+2] (stereo not shown) [Preparation Example 1, calcium salts of ascorbic acid and dichloroacetic acid]
- expression of PDK-4 (PDK-4 [1]; C2C12 myotubes + CCM, 72 hours, comparison experiment with components alone and in combination): inhibited
- expression level of PDK-4 (PDK-4 [1]; C2C12 myotubes, differentiation medium:CCM 1:1, 72 hours, three predetermined concentrations, vs CCM control): expression was inhibited
- weight increase compared to G2 ([2]; 17th day): about 6%
- weight increase compared to G2 ([2]; 20th day): ~13%
- Rotarod-treadmill test improvement compared to G2 (Rotarod-treadmill test): about 24%
- expression level of PDK-4 in quadriceps (PDK-4 [3]; [6]): decrease in the expression level
- expression level of PDK-4 in quadriceps (PDK-4 [3]; [7]): excellent effect of reducing the expression level
- lactate in blood serum (lactate): decrease in the expression levels
- expression level of Atrogin1 in quadriceps (Atrogin1; [6]): decrease in the expression levels
- expression level of Atrogin1 in quadriceps (Atrogin1; G4 to G6, compared to G3 megestrol 125 mpk oral): excellent effects decreasing the expression levels
- cross-sectional area of muscle tissue (gastrocnemius, quadriceps, soleus) [4, 6]: increased the cross-sectional area
- cross-sectional area of muscle tissue (gastrocnemius, quadriceps, soleus) [4, 7]: level similar
- wire hanging test (Wire hanging test): level similar
- IL-1β in blood serum (IL-1β): decrease in the expression levels
- expression of GDF-15 (GDF-15): inhibited
- inhibitory effect on COX2 [5]: 74%

Reference: patent publication US20240408057A1, “Composition for preventing or treating cachexia and muscle loss” (METAFINES.CO.LTD., priority 2023, published 2024)
